Experimental data: patent publication US6454828B1 (Nulex, Inc., priority 2000, dated 2002)

What was measured:
Pioneer brand 34RO7 corn = test: Greenhouse evaluation study on use of ZDC as zinc fertilizer on corn; type: in vivo; details: for Dry Matter: corn harvested at 5-6 leaf stage, low-Zn Wymore silt loam soil; for Uptake P / Uptake Zn: calculated as dry matter times concentration; for Plant concentration P / Plant concentration Zn: dry plant material, ICP
Method: A greenhouse study was conducted to evaluate ZDC.
The soil source was a surface soil from a severely eroded Wymore silt loam soil (fine, smectitic, mesic Aquertic Argiudolls). Zinc deficiency symptoms on corn had been observed on the site during the 1999 growing season.
The soil was air-dried and sieved through a 1 cm coarse sieve. Five and one-half inch top diameter, plastic-lined pots were used. For each pot, 1600 g of soil was weighed into a plastic bag, and 1 g of monoammonium phosphate (11-52-0) was added to the plastic bags as a nitrogen and phosphorous source to ensure adequate growth. The MPA/soil was thoroughly mixed. About ⅔ of the soil from the thoroughly mixed MAP/soil was added to the plastic-lined pot, with roughly 2 inches of soil remaining to be added to the pot after starter fertilizer application and seed planting. A small furrow was made across the pot and a MAP/zinc starter mix added. An inch of soil was added and 4 seeds of Pioneer brand 34RO7 corn was planted directly over the fertilizer band, and the rest of the soil was added to the pot to cover the seed to one inch deep. Planting was on March 24. The fertilizer rate was calculated as a starter band rate based on the linear feet in an acre planted in 30 inch rows. A 5″ length of row was used in the calculations. […] Six replications were used. Pots were watered from the surface using distilled water. All pots received a blanket application of (NH4)2SO4 at the rate of 50#N/acre at the initial watering and twice more during the duration of the study.
Pots were thinned to three plants per pot approximately 1 week after emergence. Plants were harvested April 28 for dry matter yield by clipping about one-half inch above the soil surface. Samples were oven-dried at 65° C. for 48 hours and weighed.
The dry plant material was ground through a stainless steel small plant grinder to pass a 2 mm sieve. A quarter gram was weighed, wet-ashed with nitric-perchloric acid, and P and Zn concentration determined using an inductive couple plasma (ICP) instrument. Zinc and P uptake were calculated as dry matter times concentration.

[1] = Hydroscopicity check: granulated material stored overnight in the open; type: physicochemical; details: for Hydroscopicity of granulated material (in words): material melt-granulated at about 340-360° F.; for % Gain (weight, stored in the open): 24 hrs
Method: A sample of the material granulated in the previous run at about 350° F. was screened, and the material falling into a −8 mesh class was stored overnight in the open to check for hydroscopicity.

[2] = ambient temperatures; cited from earlier work

SMILES | Plant height, visual (10# Zn vs 1# Zn) (Pioneer brand 34RO7 corn; 10# Zn as ZDC compared with 1# Zn as ZDC, from shortly after emergence throughout the study) | Dry Matter (Pioneer brand 34RO7 corn; Zn rate 1 lb/ac as starter band) [g/pot] | Uptake P (Pioneer brand 34RO7 corn; Zn rate 1 lb/ac) [mg/pot] | Uptake Zn (Pioneer brand 34RO7 corn; Zn rate 1 lb/ac) | Plant concentration P (Pioneer brand 34RO7 corn; Zn rate 1 lb/ac) | Plant concentration Zn (Pioneer brand 34RO7 corn; Zn rate 1 lb/ac) [ppm] | Dry Matter (Pioneer brand 34RO7 corn; Zn rate 10 lb/ac as starter band) [g/pot] | Uptake P (Pioneer brand 34RO7 corn; Zn rate 10 lb/ac) [mg/pot] | Uptake Zn (Pioneer brand 34RO7 corn; Zn rate 10 lb/ac) | Plant concentration P (Pioneer brand 34RO7 corn; Zn rate 10 lb/ac) | Plant concentration Zn (Pioneer brand 34RO7 corn; Zn rate 10 lb/ac) [ppm] | Hydroscopicity of granulated material (in words) [1] | Hydroscopicity of granulated material (in words) ([1]; listed as Zn(NH3)2Cl2) | % Gain (weight, stored in the open) ([1]; −4+6 mesh granulated material) [%] | Weight gained at 24 hrs. ([1]; −4+6 mesh granulated material, starting Wt. 5.0774) | % Gain (weight, stored in the open) ([1]; −8 mesh granulated material) [%] | Weight gained at 24 hrs. ([1]; −8 mesh granulated material, starting Wt. 5.5600) | Zinc content of solution (solubility) [2] [% zinc]
N.N.[Cl][Zn][Cl] [ZDC, Zinc diammine chloride] | slightly shorter | 7.88 | 28.4 | .21 μg/pot | .36% | 27 | 7.44 | 24.6 | .35 μg/pot | .33% | 47 | very low hydroscopicity | did not appear to be hydroscopic | 0.18 | 0.0091 | 0.37 | 0.0206 | 
[Cl-].[Cl-].[Zn+2] [zinc chloride] |  |  |  |  |  |  |  |  |  |  |  |  |  |  |  |  |  | 30
